The results in this text go back to the kinase profiling compilation of Christmann-Franck et al. (2016).

Targets include CLK4 (human) (UniProt Q9HAZ1); CDK16 (human) (UniProt Q00536); RPS6KA5 KD2 (human) (UniProt O75582); CDK2 (human) (UniProt P24941); RPS6KA4 KD2 (human) (UniProt O75676); BMP2K (human) (UniProt Q9NSY1); MINK1 (human) (UniProt Q8N4C8); BRSK2 (human) (UniProt Q8IWQ3); AAK1 (human) (UniProt Q2M2I8); PRKD1 (human) (UniProt Q15139); ACVR2B (human) (UniProt Q13705); CDK7 (human) (UniProt P50613); DCLK3 (human) (UniProt Q9C098); BMPR1B (human) (UniProt O00238); PRKD3 (human) (UniProt O94806); STK24 (human) (UniProt Q9Y6E0); RPS6KA1 KD2 (human) (UniProt Q15418); MAPK8 (human) (UniProt P45983); PRKAA1 (human) (UniProt Q13131); CIT (human) (UniProt O14578); SRPK2 (human) (UniProt P78362); STK33 (human) (UniProt Q9BYT3); TNK2 (human) (UniProt Q07912); CAMK1G (human) (UniProt Q96NX5); MLTK (human) (UniProt Q9NYL2); PRKCD (human) (UniProt Q05655).

Experiment in all cases: KINOMEscan competition binding
Common to all, as to settings: compound 10.0 µM

Chain of MAPK8 (human) (P45983 whole entry, looked up): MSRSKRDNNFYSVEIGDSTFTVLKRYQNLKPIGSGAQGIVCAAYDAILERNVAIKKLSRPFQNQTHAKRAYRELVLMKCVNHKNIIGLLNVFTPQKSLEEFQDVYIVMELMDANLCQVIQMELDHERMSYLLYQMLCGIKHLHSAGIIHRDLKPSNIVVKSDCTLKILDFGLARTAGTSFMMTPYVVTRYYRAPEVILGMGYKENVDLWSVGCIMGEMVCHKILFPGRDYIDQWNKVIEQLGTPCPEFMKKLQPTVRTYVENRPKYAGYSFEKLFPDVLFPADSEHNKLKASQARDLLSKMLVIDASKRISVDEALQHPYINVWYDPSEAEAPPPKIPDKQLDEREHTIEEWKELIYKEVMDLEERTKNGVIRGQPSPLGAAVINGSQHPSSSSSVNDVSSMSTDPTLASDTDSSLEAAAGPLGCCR
Chain of CDK7 (human) (P50613 whole entry, looked up): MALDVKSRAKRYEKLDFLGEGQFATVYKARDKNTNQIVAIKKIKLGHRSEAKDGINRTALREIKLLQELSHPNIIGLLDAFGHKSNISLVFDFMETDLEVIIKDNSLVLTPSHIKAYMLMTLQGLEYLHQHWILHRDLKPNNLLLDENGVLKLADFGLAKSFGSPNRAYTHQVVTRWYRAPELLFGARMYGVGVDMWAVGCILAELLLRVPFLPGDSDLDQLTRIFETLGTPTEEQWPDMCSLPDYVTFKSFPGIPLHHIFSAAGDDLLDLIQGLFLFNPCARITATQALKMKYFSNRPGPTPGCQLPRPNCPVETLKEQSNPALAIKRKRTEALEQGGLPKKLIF
Chain of PRKD3 (human) (O94806 whole entry, looked up): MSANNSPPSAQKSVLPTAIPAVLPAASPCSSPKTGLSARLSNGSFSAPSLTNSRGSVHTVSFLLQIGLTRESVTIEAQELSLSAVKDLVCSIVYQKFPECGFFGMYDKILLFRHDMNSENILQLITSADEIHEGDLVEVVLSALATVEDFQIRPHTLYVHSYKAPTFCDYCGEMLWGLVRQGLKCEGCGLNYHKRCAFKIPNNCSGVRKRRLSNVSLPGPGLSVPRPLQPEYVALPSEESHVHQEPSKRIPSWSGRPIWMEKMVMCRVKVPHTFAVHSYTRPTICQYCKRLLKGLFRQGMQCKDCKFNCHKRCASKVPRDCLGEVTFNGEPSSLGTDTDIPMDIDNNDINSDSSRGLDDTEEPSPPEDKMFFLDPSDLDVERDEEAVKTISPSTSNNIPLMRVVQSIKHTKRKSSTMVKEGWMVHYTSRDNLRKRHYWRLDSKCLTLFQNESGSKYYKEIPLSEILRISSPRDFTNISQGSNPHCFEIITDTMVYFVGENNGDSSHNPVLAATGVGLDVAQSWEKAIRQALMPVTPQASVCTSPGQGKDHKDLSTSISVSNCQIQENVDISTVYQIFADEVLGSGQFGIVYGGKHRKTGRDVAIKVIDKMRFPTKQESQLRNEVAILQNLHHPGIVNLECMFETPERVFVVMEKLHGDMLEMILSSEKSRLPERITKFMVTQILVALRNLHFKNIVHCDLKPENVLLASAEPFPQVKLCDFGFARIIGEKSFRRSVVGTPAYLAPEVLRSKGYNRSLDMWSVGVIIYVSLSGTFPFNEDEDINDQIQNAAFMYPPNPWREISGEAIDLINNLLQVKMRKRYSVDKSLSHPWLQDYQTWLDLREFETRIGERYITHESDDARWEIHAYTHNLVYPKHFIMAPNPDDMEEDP
Chain of BMP2K (human) (Q9NSY1 whole entry, looked up): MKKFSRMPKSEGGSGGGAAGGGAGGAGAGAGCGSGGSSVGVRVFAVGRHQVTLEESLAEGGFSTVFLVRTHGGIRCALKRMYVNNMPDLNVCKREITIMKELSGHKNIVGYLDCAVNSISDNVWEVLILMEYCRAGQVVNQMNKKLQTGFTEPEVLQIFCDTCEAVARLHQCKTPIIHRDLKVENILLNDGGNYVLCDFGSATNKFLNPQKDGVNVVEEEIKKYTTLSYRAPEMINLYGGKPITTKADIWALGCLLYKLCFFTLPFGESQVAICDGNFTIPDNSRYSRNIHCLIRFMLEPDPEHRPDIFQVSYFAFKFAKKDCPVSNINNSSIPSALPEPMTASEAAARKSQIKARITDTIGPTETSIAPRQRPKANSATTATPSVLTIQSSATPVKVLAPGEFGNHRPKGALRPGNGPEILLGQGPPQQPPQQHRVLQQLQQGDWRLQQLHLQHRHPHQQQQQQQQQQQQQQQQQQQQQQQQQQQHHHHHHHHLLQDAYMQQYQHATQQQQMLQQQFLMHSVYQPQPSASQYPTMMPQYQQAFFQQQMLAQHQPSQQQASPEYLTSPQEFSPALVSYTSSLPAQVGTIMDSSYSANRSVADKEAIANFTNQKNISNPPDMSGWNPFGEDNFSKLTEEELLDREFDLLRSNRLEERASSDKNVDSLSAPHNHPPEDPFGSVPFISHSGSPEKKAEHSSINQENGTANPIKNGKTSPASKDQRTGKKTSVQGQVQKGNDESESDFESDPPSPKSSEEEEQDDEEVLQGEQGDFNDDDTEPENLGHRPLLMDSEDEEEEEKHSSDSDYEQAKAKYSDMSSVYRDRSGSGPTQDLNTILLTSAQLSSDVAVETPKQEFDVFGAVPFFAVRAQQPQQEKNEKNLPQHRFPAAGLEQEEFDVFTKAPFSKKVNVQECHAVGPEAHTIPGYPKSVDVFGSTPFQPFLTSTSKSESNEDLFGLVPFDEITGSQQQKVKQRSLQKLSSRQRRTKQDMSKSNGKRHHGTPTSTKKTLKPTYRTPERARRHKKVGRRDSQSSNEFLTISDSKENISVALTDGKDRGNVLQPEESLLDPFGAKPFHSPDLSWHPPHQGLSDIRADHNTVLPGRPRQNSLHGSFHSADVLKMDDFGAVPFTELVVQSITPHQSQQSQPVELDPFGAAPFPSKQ
Chain of ACVR2B (human) (Q13705 whole entry, looked up): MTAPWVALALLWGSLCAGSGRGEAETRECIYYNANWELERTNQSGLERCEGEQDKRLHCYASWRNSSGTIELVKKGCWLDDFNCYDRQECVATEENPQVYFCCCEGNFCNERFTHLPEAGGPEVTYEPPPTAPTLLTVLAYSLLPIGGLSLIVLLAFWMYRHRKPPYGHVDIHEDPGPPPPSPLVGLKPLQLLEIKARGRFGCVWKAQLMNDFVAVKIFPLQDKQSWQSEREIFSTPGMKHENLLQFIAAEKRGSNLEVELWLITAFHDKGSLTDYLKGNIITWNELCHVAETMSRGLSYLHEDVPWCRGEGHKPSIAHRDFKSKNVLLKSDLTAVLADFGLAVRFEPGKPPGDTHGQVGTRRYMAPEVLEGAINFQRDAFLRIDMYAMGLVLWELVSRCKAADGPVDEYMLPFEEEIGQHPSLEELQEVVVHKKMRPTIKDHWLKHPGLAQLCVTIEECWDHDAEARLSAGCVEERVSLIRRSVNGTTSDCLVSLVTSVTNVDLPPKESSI
Chain of CDK16 (human) (Q00536 whole entry, looked up): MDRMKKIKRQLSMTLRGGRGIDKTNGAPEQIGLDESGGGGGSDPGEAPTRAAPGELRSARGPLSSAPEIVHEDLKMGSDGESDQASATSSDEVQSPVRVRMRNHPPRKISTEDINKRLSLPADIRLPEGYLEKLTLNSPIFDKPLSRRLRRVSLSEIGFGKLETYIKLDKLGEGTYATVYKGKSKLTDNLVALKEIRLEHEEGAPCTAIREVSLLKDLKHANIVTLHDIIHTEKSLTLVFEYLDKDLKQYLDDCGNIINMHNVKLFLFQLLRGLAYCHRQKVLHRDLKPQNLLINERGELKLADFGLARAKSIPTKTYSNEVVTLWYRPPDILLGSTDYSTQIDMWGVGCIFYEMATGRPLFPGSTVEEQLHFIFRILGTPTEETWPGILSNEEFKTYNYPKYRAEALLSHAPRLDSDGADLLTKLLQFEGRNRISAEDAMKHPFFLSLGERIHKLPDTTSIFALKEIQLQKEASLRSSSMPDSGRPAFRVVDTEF
Chain of DCLK3 (human) (Q9C098 whole entry, looked up): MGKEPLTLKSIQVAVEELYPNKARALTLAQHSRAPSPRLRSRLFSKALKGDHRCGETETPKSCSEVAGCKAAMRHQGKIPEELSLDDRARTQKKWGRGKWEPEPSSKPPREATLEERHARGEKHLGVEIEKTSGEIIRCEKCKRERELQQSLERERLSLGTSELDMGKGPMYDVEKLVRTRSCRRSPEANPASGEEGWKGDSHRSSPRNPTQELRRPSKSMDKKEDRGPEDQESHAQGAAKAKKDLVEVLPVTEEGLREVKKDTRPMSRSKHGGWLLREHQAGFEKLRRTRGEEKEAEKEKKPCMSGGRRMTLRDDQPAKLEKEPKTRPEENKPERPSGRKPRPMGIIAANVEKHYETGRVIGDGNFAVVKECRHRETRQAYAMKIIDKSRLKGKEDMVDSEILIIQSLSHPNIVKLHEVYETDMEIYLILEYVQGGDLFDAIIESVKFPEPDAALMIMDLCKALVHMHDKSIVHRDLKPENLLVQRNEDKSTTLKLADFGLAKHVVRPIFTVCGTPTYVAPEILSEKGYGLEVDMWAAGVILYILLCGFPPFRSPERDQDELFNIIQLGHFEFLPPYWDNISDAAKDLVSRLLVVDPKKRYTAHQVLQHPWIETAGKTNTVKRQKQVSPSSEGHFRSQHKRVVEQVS
Chain of CLK4 (human) (Q9HAZ1 whole entry, looked up): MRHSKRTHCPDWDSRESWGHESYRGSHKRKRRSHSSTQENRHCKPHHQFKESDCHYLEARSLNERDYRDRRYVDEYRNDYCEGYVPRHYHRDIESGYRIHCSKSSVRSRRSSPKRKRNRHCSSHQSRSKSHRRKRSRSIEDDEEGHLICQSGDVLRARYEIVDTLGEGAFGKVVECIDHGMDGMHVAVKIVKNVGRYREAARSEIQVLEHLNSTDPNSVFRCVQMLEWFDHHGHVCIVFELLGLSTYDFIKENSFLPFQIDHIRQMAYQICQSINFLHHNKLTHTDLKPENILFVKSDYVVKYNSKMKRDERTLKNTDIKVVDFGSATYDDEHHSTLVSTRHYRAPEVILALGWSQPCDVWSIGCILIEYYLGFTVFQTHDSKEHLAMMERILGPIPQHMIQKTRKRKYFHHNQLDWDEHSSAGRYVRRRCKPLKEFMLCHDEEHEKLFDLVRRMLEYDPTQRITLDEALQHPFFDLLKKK

Consider `N=C1NC(=O)/C(=C/c2ccc(-c3ccccc3O)o2)S1`, for which the kinase still bound, per cent of control turned out to be 5.2% on CLK4 (human); 0.15% at CDK16 (human); 29% at RPS6KA5 KD2 (human); 20% at CDK2 (human); 2.2% at RPS6KA4 KD2 (human); 14% at BMP2K (human). Further, the kinase still bound, per cent of control at MINK1 (human) amounted to 15%; at BRSK2 (human), 29%; on AAK1 (human), 8.2%; on PRKD1 (human), 26%; at ACVR2B (human) it was 15%; on CDK7 (human), 1.4%. Moreover, the kinase still bound, per cent of control on DCLK3 (human) is 2.9%; at BMPR1B (human) it was 8.8%; at PRKD3 (human) it was 28%.
On to `N=C1NC(=O)/C(=C/c2ccc(-c3csc4ccccc34)o2)S1`, for which the kinase still bound, per cent of control on CLK4 (human) is 25%; at STK24 (human), 18%; on BRSK2 (human), 18%; on RPS6KA1 KD2 (human) it was 14%; at ACVR2B (human), 10%; on DCLK3 (human) it was 26%. Moreover, the kinase still bound, per cent of control on MAPK8 (human) came out at 34%.
For the compound `N=C1NC(=O)/C(=C/c2ccc(-c3ccc(F)cc3O)o2)S1`, the kinase still bound, per cent of control at CLK4 (human) was 2.1%; at CDK16 (human), 0.1%; on RPS6KA5 KD2 (human) it was 24%; on CDK2 (human), 6.6%; at RPS6KA4 KD2 (human) it was 1.8%; at MINK1 (human) it was 24%. For the same compound, the kinase still bound, per cent of control on BRSK2 (human) turned out to be 23%; on PRKAA1 (human), 32%; at CIT (human) it was 33%; at AAK1 (human) it was 16%; at PRKD1 (human), 32%; on ACVR2B (human), 16%. Besides, the kinase still bound, per cent of control came out at 0.95% on CDK7 (human), 1% on DCLK3 (human) and 12% on BMPR1B (human).
For the compound `Nc1cccc(-c2cc(/C=C3\SC(=O)NC3=O)c[nH]c2=O)c1`, the kinase still bound, per cent of control on CLK4 (human) is 16%; on SRPK2 (human), 26%; on RPS6KA5 KD2 (human) it was 11%; on RPS6KA4 KD2 (human) it was 0.1%; at BMP2K (human), 1%; at STK33 (human) it was 19%. Further, the kinase still bound, per cent of control stood at 1.8% on AAK1 (human), 10% on ACVR2B (human), 8.8% at CDK7 (human) and 2.2% at BMPR1B (human).
In the case of `O=C1NC(=S)S/C1=C\c1ccc(-c2cncc3ccccc23)o1`, the kinase still bound, per cent of control on TNK2 (human) was found to be 34%; at CLK4 (human), 6.1%; on SRPK2 (human), 32%; at CDK16 (human) it was 5.2%; at STK24 (human), 12%; at BMP2K (human), 0.4%. Further, the kinase still bound, per cent of control at MINK1 (human) was determined as 33%; on CAMK1G (human), 34%; on BRSK2 (human), 29%; at CIT (human) it was 28%; on RPS6KA1 KD2 (human), 2.6%; on MLTK (human), 31%. Further, the kinase still bound, per cent of control at AAK1 (human) was 4.7%; at ACVR2B (human), 25%; on MAPK8 (human) it was 7%.
As for `CSC1=NC(=O)/C(=C/c2c[nH]c(=O)c(-c3ccc(NS(C)(=O)=O)cc3)c2)S1`, the kinase still bound, per cent of control at SRPK2 (human) was found to be 13%; on RPS6KA5 KD2 (human), 11%; on RPS6KA4 KD2 (human) it was 0.15%; at BMP2K (human), 2%; on RPS6KA1 KD2 (human) it was 32%; on AAK1 (human) it was 6.2%. Further, the figures for the kinase still bound, per cent of control on CDK7 (human) and on BMPR1B (human) were 30% and 7.4%, respectively.
Take `N=C1NC(=O)/C(=C/c2ccc(-c3cncc4ccccc34)o2)S1`: the kinase still bound, per cent of control worked out at 2.8% on CLK4 (human); 9.9% at SRPK2 (human); 9.8% on CDK16 (human); 27% at RPS6KA4 KD2 (human); 16% on STK24 (human); 0% on BMP2K (human). The kinase still bound, per cent of control at CAMK1G (human) was found to be 18%; on BRSK2 (human) it was 7.1%; at PRKAA1 (human), 24%; on CIT (human), 19%; at STK33 (human), 12%; on RPS6KA1 KD2 (human), 11%. Besides, the kinase still bound, per cent of control at MLTK (human) stood at 23%; at AAK1 (human), 1.1%; at PRKD1 (human), 16%; at ACVR2B (human), 7.6%; at CDK7 (human), 14%; at DCLK3 (human), 30%. The kinase still bound, per cent of control at PRKD3 (human) turned out to be 26%; at MAPK8 (human), 20%.
For `CS(=O)(=O)Nc1ccc(-c2ncc(/C=C3\SC(=N)NC3=O)s2)cc1`, the kinase still bound, per cent of control at RPS6KA4 KD2 (human) was determined as 1.2%; at BMP2K (human) it was 29%; at MINK1 (human) it was 1.3%; on BRSK2 (human) it was 28%; at AAK1 (human) it was 13%; on ACVR2B (human), 16%. Further, the kinase still bound, per cent of control was determined as 22% on DCLK3 (human) and 14% at BMPR1B (human).
As to `N=C1NC(=O)/C(=C/c2c[nH]c(=O)c(-c3ccc(N4CCNCC4)nc3)c2)S1`, the kinase still bound, per cent of control is 16% at CLK4 (human); 11% at RPS6KA5 KD2 (human); 0.1% on RPS6KA4 KD2 (human); 6.3% on BMP2K (human); 29% at MINK1 (human); 7.2% on STK33 (human). The kinase still bound, per cent of control amounted to 12% at AAK1 (human); 7% on PRKD1 (human); 8.8% on CDK7 (human); 13% on DCLK3 (human); 11% at BMPR1B (human).
With `CS(=O)(=O)Nc1ccc(-c2cc(/C=C3\SC(=N)NC3=O)c[nH]c2=O)cc1`, the kinase still bound, per cent of control on CLK4 (human) is 6%; at SRPK2 (human), 2.3%; at RPS6KA5 KD2 (human), 0.15%; on RPS6KA4 KD2 (human), 0.35%; at BMP2K (human), 2.2%; at MINK1 (human), 15%. For the same compound, the kinase still bound, per cent of control at PRKCD (human) was 34%; at CIT (human), 23%; on AAK1 (human) it was 7.6%; at PRKD1 (human), 15%; at ACVR2B (human), 12%; on CDK7 (human), 26%. For the same compound, the kinase still bound, per cent of control came out at 4.1% on BMPR1B (human) and 33% at PRKD3 (human).
